Results reported in patent US20260226086A1, “COMPOUNDS AND COMPOSITIONS AS STAT3 DEGRADERS AND USES THEREOF” (REGENTS OF THE UNIVERSITY OF MICHIGAN, priority 2023, published 2026).
pIC50: −log10 of the molar value.

How the values were obtained:
Format in all cases: cell-based
STAT3 = molecular target: T1, STAT3 (Homo sapiens, UniProt P40763); assay: HiBiT assay, STAT3 degradation in STAT3-HiBiT KI HeLa cells; conditions: 24 h; for DC50: read-out: STAT3 Degradation (HeLa 24 h HiBit) DC50
T1 construct: This cell line is a clone created by using CRISPR-Cas9 to fuse HiBiT to the 3′ end of STAT3 in HeLa cells; host or cells: STAT3-HiBiT KI HeLa cell line (CRISPR-Cas9 knock-in clone)
In short: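 Luminescence of endogenous HiBiT-tagged STAT3 (C-terminal knock-in, HeLa) was measured with lytic Nano-Glo detection after 24 h exposure to serially diluted compounds at 37 °C. Cells plated at 20000/well; untreated cells served as control, and triplicate means were fit by four-parameter regression to give IC50.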

SU-DHL-1 cells = assay: CellTiter-Glo 2.0 cell viability assay, SU-DHL-1; conditions: Homo sapiens, 96 h, 4 days
Protocol: For example, cell viability may be determined by CellTiter-Glo 2.0 Cell Viability Assay. In a typical procedure, cells seeded at certain amounts of cells (e.g., 1000 cells) per well are incubated with serially diluted compounds for certain period (e.g., 4 days) under certain conditions (e.g., at 37° C. with 5% CO2). At the end of treatment, CellTiter-Glo 2.0 is added to the wells and luminescence is acquired on TECAN SPARK plate reader. Untreated cells are used as control, Data points are fit with an equation (e.g., a four-parameter equation) to generate a concentration-response curve. IC50 values are calculated using a nonlinear regression analysis of the mean±SD from triplicate.
SU-DHL-1 and SUP-M2 cell viability was determined by CellTiter-Glo 2.0 Cell Viability Assay (Promega). SU-DHL-1 cell line was purchased from ATCC (Manassas, VA) and SUP-M2 (ACC-509) was purchased from DSMZ (Germany). RPMI 1640 medium and fetal bovine serum (FBS) were purchased from Gibco/Thermo Fisher Scientific. In a typical procedure, cells seeded at 1000 cells per well in 384-well white plates (Corning) were incubated with serially diluted compounds for 4 days at 37° C. with 5% C02. At the end of treatment, CellTiter-Glo 2.0 was added to the wells and luminescence was acquired on TECAN SPARK plate reader. Untreated cells were used as control. Data points were fit with a four-parameter equation to generate a concentration-response curve. IC50 values were calculated using a nonlinear regression analysis of the mean±SD from triplicate.

SUP-M2 cells = assay: CellTiter-Glo 2.0 cell viability assay, SUP-M2; conditions: 4 days
In short: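 IC50 derived by four-parameter nonlinear regression on triplicate luminescence data (CellTiter-Glo 2.0), normalised to untreated controls. Cells plated at 1000/well received serial compound dilutions for 4 days at 37 °C with 5% CO2.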

T1 sequence (P40763 whole entry): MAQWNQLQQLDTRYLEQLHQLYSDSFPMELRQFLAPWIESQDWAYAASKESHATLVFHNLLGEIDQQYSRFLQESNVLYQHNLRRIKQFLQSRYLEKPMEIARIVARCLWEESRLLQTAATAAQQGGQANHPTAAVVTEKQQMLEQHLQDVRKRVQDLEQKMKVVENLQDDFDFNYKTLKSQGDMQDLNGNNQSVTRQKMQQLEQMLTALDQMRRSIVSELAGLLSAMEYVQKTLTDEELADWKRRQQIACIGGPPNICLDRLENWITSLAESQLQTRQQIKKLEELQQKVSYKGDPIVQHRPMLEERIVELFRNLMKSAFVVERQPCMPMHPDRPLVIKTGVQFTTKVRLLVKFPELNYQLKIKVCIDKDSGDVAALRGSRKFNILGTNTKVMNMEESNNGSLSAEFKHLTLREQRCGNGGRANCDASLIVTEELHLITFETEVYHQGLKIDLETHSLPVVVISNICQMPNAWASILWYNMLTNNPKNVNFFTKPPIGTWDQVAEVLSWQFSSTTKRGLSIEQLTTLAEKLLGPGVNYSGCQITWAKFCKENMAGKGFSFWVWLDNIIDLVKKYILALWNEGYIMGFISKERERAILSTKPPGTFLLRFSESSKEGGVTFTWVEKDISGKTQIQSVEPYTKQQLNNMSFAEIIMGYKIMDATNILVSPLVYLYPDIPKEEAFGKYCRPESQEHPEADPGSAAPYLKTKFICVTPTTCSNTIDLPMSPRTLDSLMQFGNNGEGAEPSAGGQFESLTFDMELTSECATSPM

In the case of `Cc1ncsc1-c1ccc([C@H](C)NC(=O)[C@@H]2C[C@@H](O)CN2C(=O)[C@@H](n2cc(CCCCC(=O)N3CC[C@H]4CC[C@@H](C(=O)N[C@@H](CCC(N)=O)C(=O)NC(c5ccccc5)c5ccccc5)N4C(=O)[C@@H](NC(=O)c4cc5cc(C(=O)P(=O)(O)O)ccc5[nH]4)C3)nn2)C(C)(C)C)cc1` [Compound 13, (2-(((5S,8S,10aR)-8-(((S)-5-amino-1-(benzhydrylamino)-1,5-dioxopentan-2-yl)carbamoyl)-3-(5-(1-((S)-1-((2S,4R)-4-hydroxy-2-(((S)-1-(4-(4-methylthiazol-5-yl)phenyl)ethyl)carbamoyl)pyrrolidin-1-yl)-3,3-dimethyl-1-oxobutan-2-yl)-1H-1,2,3-triazol-4-yl)pentanoyl)-6-oxodecahydropyrrolo[1,2-a][1,5]diazocin-5-yl)carbamoyl)-1H-indole-5-carbonyl)phosphonic acid], the Dmax at 1 µM (STAT3) was greater than 80%, the DC50 (STAT3) was 0.01 to 0.1 µM and the pIC50 (SU-DHL-1 cells) was 6.00 to 7.00. It also gave a pIC50 (SUP-M2 cells) of 7.00 to 8.00.
Work on `CCS(=O)(=O)c1ccc(CNC(=O)[C@H](CCC(N)=O)NC(=O)[C@@H]2CC[C@@H]3CCN(C(=O)CCCCCc4cn([C@H](C(=O)N5C[C@H](O)C[C@H]5C(=O)N[C@@H](C)c5ccc(-c6scnc6C)cc5)C(C)(C)C)nn4)C[C@H](NC(=O)c4cc5cc(C(=O)P(=O)(O)O)ccc5[nH]4)C(=O)N32)cc1` [Compound 14, (2-(((5S,8S,10aR)-8-(((S)-5-amino-1-((4-(ethylsulfonyl)benzyl)amino)-1,5-dioxopentan-2-yl)carbamoyl)-3-(6-(1-((S)-1-((2S,4R)-4-hydroxy-2-(((S)-1-(4-(4-methylthiazol-5-yl)phenyl)ethyl)carbamoyl)pyrrolidin-1-yl)-3,3-dimethyl-1-oxobutan-2-yl)-1H-1,2,3-triazol-4-yl)hexanoyl)-6-oxodecahydropyrrolo[1,2-a][1,5]diazocin-5-yl)carbamoyl)-1H-indole-5-carbonyl)phosphonic acid] yielded a Dmax at 1 µM (STAT3) greater than 80%, a DC50 (STAT3) of less than 0.01 µM and a pIC50 (SU-DHL-1 cells) greater than 8.00. The pIC50 (SUP-M2 cells; SUP-M2, 96 h) was greater than 8.00.
`CCS(=O)(=O)c1ccc(CNC(=O)[C@H](CCC(N)=O)NC(=O)[C@@H]2CC[C@@H]3CCN(C(=O)CCCCCCc4cn([C@H](C(=O)N5C[C@H](O)C[C@H]5C(=O)N[C@@H](C)c5ccc(-c6scnc6C)cc5)C(C)(C)C)nn4)C[C@H](NC(=O)c4cc5cc(C(=O)P(=O)(O)O)ccc5[nH]4)C(=O)N32)cc1` [Compound 15, (2-(((5S,8S,10aR)-8-(((S)-5-amino-1-((4-(ethylsulfonyl)benzyl)amino)-1,5-dioxopentan-2-yl)carbamoyl)-3-(7-(1-((S)-1-((2S,4R)-4-hydroxy-2-(((S)-1-(4-(4-methylthiazol-5-yl)phenyl)ethyl)carbamoyl)pyrrolidin-1-yl)-3,3-dimethyl-1-oxobutan-2-yl)-1H-1,2,3-triazol-4-yl)heptanoyl)-6-oxodecahydropyrrolo[1,2-a][1,5]diazocin-5-yl)carbamoyl)-1H-indole-5-carbonyl)phosphonic acid] gave a Dmax at 1 µM (STAT3) greater than 80%, a DC50 (STAT3) of less than 0.01 µM and a pIC50 (SU-DHL-1 cells) of 7.00 to 8.00. For the same compound, the pIC50 (SUP-M2 cells; SUP-M2, 96 h) was 7.00 to 8.00.
`CCS(=O)(=O)c1ccc(CNC(=O)[C@H](CCC(N)=O)NC(=O)[C@@H]2CC[C@@H]3CCN(C(=O)CCCCc4cn([C@H](C(=O)N5C[C@H](O)C[C@H]5C(=O)N[C@@H](CN5CCOCC5)c5ccc(-c6scnc6C)cc5)C(C)(C)C)nn4)C[C@H](NC(=O)c4cc5cc(C(=O)P(=O)(O)O)ccc5[nH]4)C(=O)N32)cc1` [Compound 16, (2-(((5S,8S,10aR)-8-(((S)-5-amino-1-((4-(ethylsulfonyl)benzyl)amino)-1,5-dioxopentan-2-yl)carbamoyl)-3-(5-(1-((S)-1-((2S,4R)-4-hydroxy-2-(((R)-1-(4-(4-methylthiazol-5-yl)phenyl)-2-morpho-linoethyl)carbamoyl)pyrrolidin-1-yl)-3,3-dimethyl-1-oxobutan-2-yl)-1H-1,2,3-triazol-4-yl)pentanoyl)-6-oxodecahydropyrrolo[1,2-a][1,5]diazocin-5-yl)carbamoyl)-1H-indole-5-carbonyl)phosphonic acid] showed a Dmax at 1 µM (STAT3) greater than 80%, a DC50 (STAT3) of 0.01 to 0.1 µM and a pIC50 (SU-DHL-1 cells) of 6.00 to 7.00. It also gave a pIC50 (SUP-M2 cells; SUP-M2, 96 h) of 6.00 to 7.00.
With `CCS(=O)(=O)c1ccc(CNC(=O)[C@H](CCC(N)=O)NC(=O)[C@@H]2CC[C@@H]3CCN(C(=O)CCCCc4cn([C@H](C(=O)N5C[C@H](O)C[C@H]5C(=O)N[C@@H](CCN5CCOCC5)c5ccc(-c6scnc6C)cc5)C(C)(C)C)nn4)C[C@H](NC(=O)c4cc5cc(C(=O)P(=O)(O)O)ccc5[nH]4)C(=O)N32)cc1` [Compound 17, (2-(((5S,8S,10aR)-8-(((S)-5-amino-1-((4-(ethylsulfonyl)benzyl)amino)-1,5-dioxopentan-2-yl)carbamoyl)-3-(5-(1-((S)-1-((2S,4R)-4-hydroxy-2-(((S)-1-(4-(4-methylthiazol-5-yl)phenyl)-3-morpholinopropyl)carbamoyl)pyrrolidin-1-yl)-3,3-dimethyl-1-oxobutan-2-yl)-1H-1,2,3-triazol-4-yl)pentanoyl)-6-oxodecahydropyrrolo[1,2-a][1,5]diazocin-5-yl)carbamoyl)-1H-indole-5-carbonyl)phosphonic acid] the Dmax at 1 µM (STAT3) was greater than 80%, the DC50 (STAT3) was 0.1 to 1 µM and the pIC50 (SU-DHL-1 cells) was 6.00 to 7.00. It also gave a pIC50 (SUP-M2 cells; SUP-M2, 96 h) of 6.00 to 7.00.
In the case of `CCS(=O)(=O)c1ccc(CNC(=O)[C@H](CCC(N)=O)NC(=O)[C@@H]2CC[C@@H]3CCN(C(=O)[C@H]4CC[C@H](c5cn([C@H](C(=O)N6C[C@H](O)C[C@H]6C(=O)N[C@@H](C)c6ccc(-c7scnc7C)cc6)C(C)(C)C)nn5)CC4)C[C@H](NC(=O)c4cc5cc(C(=O)P(=O)(O)O)ccc5[nH]4)C(=O)N32)cc1` [Compound 18, (2-(((5S,8S,10aR)-8-(((S)-5-amino-1-((4-(ethylsulfonyl)benzyl)amino)-1,5-dioxopentan-2-yl)carbamoyl)-3-((1S,4S)-4-(1-((S)-1-((2S,4R)-4-hydroxy-2-(((S)-1-(4-(4-methylthiazol-5-yl)phenyl)ethyl)carbamoyl)pyrrolidin-1-yl)-3,3-dimethyl-1-oxobutan-2-yl)-1H-1,2,3-triazol-4-yl)cyclohexane-1-carbonyl)-6-oxodecahydropyrrolo[1,2-a][1,5]diazocin-5-yl)carbamoyl)-1H-indole-5-carbonyl)phosphonic acid], the Dmax at 1 µM (STAT3) was greater than 80%, the DC50 (STAT3) was 0.01 to 0.1 µM and the pIC50 (SU-DHL-1 cells) was 7.00 to 8.00. It also gave a pIC50 (SUP-M2 cells; SUP-M2, 96 h) of 6.00 to 7.00.
Work on `CC(=O)N1CC[C@H]2CC[C@@H](C(=O)N[C@@H](CCC(N)=O)COc3cccc(CCCc4cn([C@H](C(=O)N5C[C@H](O)C[C@H]5C(=O)N[C@@H](C)c5ccc(-c6scnc6C)cc5)C5CCCCC5)nn4)c3Cl)N2C(=O)[C@@H](NC(=O)c2cc3cc(C(=O)P(=O)(O)O)ccc3[nH]2)C1` [Compound 19, (2-(((5S,8S,10aR)-3-acetyl-8-(((S)-5-amino-1-(2-chloro-3-(3-(1-((S)-1-cyclohexyl-2-((2S,4R)-4-hydroxy-2-(((S)-1-(4-(4-methylthiazol-5-yl)phenyl)ethyl)carbamoyl)pyrrolidin-1-yl)-2-oxoethyl)-1H-1,2,3-triazol-4-yl)propyl)phenoxy)-5-oxopentan-2-yl)carbamoyl)-6-oxodecahydropyrrolo[1,2-a][1,5]diazocin-5-yl)carbamoyl)-1H-indole-5-carbonyl)phosphonic acid] yielded a Dmax at 1 µM (STAT3) greater than 80%, a DC50 (STAT3) of less than 0.01 µM and a pIC50 (SU-DHL-1 cells) greater than 8.00. The pIC50 (SUP-M2 cells; SUP-M2, 96 h) was greater than 8.00.
`CCS(=O)(=O)c1ccc(CNC(=O)[C@H](CCC(N)=O)NC(=O)[C@@H]2CC[C@@H]3CCN(C(=O)CCCCc4cn([C@@H](C(=O)N5C[C@H](O)C[C@H]5C(=O)N[C@H](C)c5ccc(-c6scnc6C)cc5)C5CCCCC5)nn4)C[C@H](NC(=O)c4cc5cc(C(=O)P(=O)(O)O)ccc5[nH]4)C(=O)N32)cc1` [Compound 20, (2-(((5S,8S,10aR)-8-(((S)-5-amino-1-((4-(ethylsulfonyl)benzyl)amino)-1,5-dioxopentan-2-yl)carbamoyl)-3-(5-(1-((R)-1-cyclohexyl-2-((2S,4R)-4-hydroxy-2-(((R)-1-(4-(4-methylthiazol-5-yl)phenyl)ethyl)carbamoyl)pyrrolidin-1-yl)-2-oxoethyl)-1H-1,2,3-triazol-4-yl)pentanoyl)-6-oxodecahydropyrrolo[1,2-a][1,5]diazocin-5-yl)carbamoyl)-1H-indole-5-carbonyl)phosphonic acid] was tested, and the Dmax at 1 µM (STAT3) was greater than 80%, the DC50 (STAT3) was less than 0.01 µM and the pIC50 (SU-DHL-1 cells) was greater than 8.00. For the same compound, the pIC50 (SUP-M2 cells; SUP-M2, 96 h) was greater than 8.00.
